Data reported in US12398097B2, “WDR5-MYC inhibitors” (Vanderbilt University, priority 2019, dated 2025).

Biological target: WDR5 (Homo sapiens, UniProt P61964)
Experiment: Competition-based fluorescence polarization anisotropy assay
Details: binding to WDR5; displacement of FITC-labeled small molecule probe (analogous to Example J2 or HCH-25) or peptide probe FITC-AHx-SEEEIDVVSV; pH 6.0; Ki converted from IC50
Experimental: Compounds of the present invention were assessed for their ability to bind to WDr5 using a competition-based fluorescence polarization anisotropy assay, similar to the method previously described. […] Fluorescence polarization measurements were performed in 384-well plates (Greiner Bio One) using a Cytation 3 plate reader (BioTek). Fluorescein isothiocyanate (FITC)-labeled peptide probe ([…]) was purchased from GenScript USA Inc and used without further purification. […] The assay buffer contained 200 mM phosphate, 300 mM NaCl, and 0.5 mM TCEP and 0.1% Chaps at pH 6.0. […] This was converted into a binding dissociation constant (Ki value) according to the formula: […] Data shown in the table below represents a K; determined from this method for each Example, using either a fluorescently labeled small molecule probe analogous to Example J2 or Example HCH-25, or the peptide probe described above, in the assay.

Compound	Ki
2-Bromo-N-(5-chloro-2-hydroxy-3-nitrophenyl)-4-ethyl-5-hydroxybenzenesulfonamide [NE3]	0.06 µM
O=C(NC1CC(O)C1)c1cc(OC(F)(F)F)cc(NS(=O)(=O)c2cc(Br)ccc2O)c1O (mixture of isomers) [HCH-3, 3-((5-Bromo-2-hydroxyphenyl)sulfonamido)-2-hydroxy-N-(3-hydroxycyclobutyl)-5-(trifluoromethoxy)benzamide]	0.51 µM
C[C@H](NC(=O)c1cc(OC(F)(F)F)cc(NS(=O)(=O)c2cc(Br)ccc2O)c1O)C(N)=O (stereo in doubt) [HCH-48, N-(1-Amino-1-oxopropan-2-yl)-3-((5-bromo-2-hydroxyphenyl)sulfonamido)-2-hydroxy-5-(trifluoromethoxy)benzamide]	0.25 µM
O=C(O)c1cc(Cl)cc(NS(=O)(=O)c2cc(Br)ccc2O)c1O [Example J1, 3-((5-Bromo-2-hydroxyphenyl)sulfonamido)-5-chloro-2-hydroxybenzoic acid]	0.09 µM
COc1ccc(Br)cc1S(=O)(=O)Nc1cc(Cl)cc(C(=O)O)c1O [Example J2, 3-((5-Bromo-2-methoxyphenyl)sulfonamido)-5-chloro-2-hydroxybenzoic acid]	0.18 µM
O=C(O)c1cc(Cl)cc(NS(=O)(=O)c2cc(Br)cc(Cl)c2O)c1O [Example J4, 3-((5-Bromo-3-chloro-2-hydroxyphenyl)sulfonamido)-5-chloro-2-hydroxybenzoic acid]	0.06 µM
O=C(O)c1cc(Cl)cc(NS(=O)(=O)c2cc(Br)cc(F)c2O)c1O [Example J5, 3-((5-Bromo-3-fluoro-2-hydroxyphenyl)sulfonamido)-5-chloro-2-hydroxybenzoic acid]	0.34 µM
O=C(O)c1cc(Cl)cc(NS(=O)(=O)c2cc(Br)cc([N+](=O)[O-])c2O)c1O [Example J6, 3-((5-Bromo-2-hydroxy-3-nitrophenyl)sulfonamido)-5-chloro-2-hydroxybenzoic acid]	0.11 µM
COc1cc(Cl)c(Br)cc1S(=O)(=O)Nc1cc(Cl)cc(C(=O)O)c1O [Example J7, 3-((5-Bromo-4-chloro-2-methoxyphenyl)sulfonamido)-5-chloro-2-hydroxybenzoic acid]	3.75 µM
COc1cc(F)c(Br)cc1S(=O)(=O)Nc1cc(Cl)cc(C(=O)O)c1O [Example J8, 3-((5-Bromo-4-fluoro-2-methoxyphenyl)sulfonamido)-5-chloro-2-hydroxybenzoic acid]	2.77 µM
O=C(O)c1cc(Cl)cc(NS(=O)(=O)c2cc(Br)c(F)cc2O)c1O [Example J9, 3-((5-Bromo-4-fluoro-2-hydroxyphenyl)sulfonamido)-5-chloro-2-hydroxybenzoic acid]	2.67 µM
O=C(O)c1cc(Cl)cc(NS(=O)(=O)c2cc(Cl)c(F)cc2O)c1O [Example J10, 5-Chloro-3-((5-chloro-4-fluoro-2-hydroxyphenyl)sulfonamido)-2-hydroxybenzoic acid]	21.9 µM
O=C(O)c1cc(Cl)cc(NS(=O)(=O)c2cc(Cl)c(Cl)cc2O)c1O [Example J11, 5-Chloro-3-((4,5-dichloro-2-hydroxyphenyl)sulfonamido)-2-hydroxybenzoic acid]	2.49 µM
CCc1cc(O)c(S(=O)(=O)Nc2cc(Cl)cc(C(=O)O)c2O)cc1Cl [Example J12, 5-Chloro-3-((5-chloro-4-ethyl-2-hydroxyphenyl)sulfonamido)-2-hydroxybenzoic acid]	11.1 µM
O=C(O)c1cc(Cl)cc(NS(=O)(=O)c2cc(Br)cc3cccnc23)c1O [Example J13, 3-((6-Bromoquinoline)-8-sulfonamido)-5-chloro-2-hydroxybenzoic acid]	0.78 µM
CNC(=O)c1cc(Cl)cc(NS(=O)(=O)c2cc(Br)ccc2O)c1O [Example J14, 3-((5-Bromo-2-hydroxyphenyl)sulfonamido)-5-chloro-2-hydroxy-N-methylbenzamide]	0.37 µM
COCCNC(=O)c1cc(Cl)cc(NS(=O)(=O)c2cc(Br)ccc2O)c1O [Example J15, 3-((5-Bromo-2-hydroxyphenyl)sulfonamido)-5-chloro-2-hydroxy-N-(2-methoxyethyl)benzamide]	0.61 µM
O=C(NCCO)c1cc(Cl)cc(NS(=O)(=O)c2cc(Br)ccc2O)c1O [Example J16, 3-((5-Bromo-2-hydroxyphenyl)sulfonamido)-5-chloro-2-hydroxy-N-(2-hydroxyethyl)benzamide]	0.54 µM

Compound	Ki
O=C(NCCCO)c1cc(Cl)cc(NS(=O)(=O)c2cc(Br)ccc2O)c1O [Example J17, 3-((5-Bromo-2-hydroxyphenyl)sulfonamido)-5-chloro-2-hydroxy-N-(3-hydroxypropyl)benzamide]	2.69 µM
O=C(NC1CCOC1)c1cc(Cl)cc(NS(=O)(=O)c2cc(Br)ccc2O)c1O (stereo not drawn) [Example J18, 3-((5-Bromo-2-hydroxyphenyl)sulfonamido)-5-chloro-2-hydroxy-N-(tetrahydrofuran-3-yl)benzamide]	1.35 µM
O=C(NCCN1CCOCC1)c1cc(Cl)cc(NS(=O)(=O)c2cc(Br)ccc2O)c1O [Example J19, 3-((5-Bromo-2-hydroxyphenyl)sulfonamido)-5-chloro-2-hydroxy-N-(2-morpholinoethyl)benzamide]	1.18 µM
O=C(NC1COC1)c1cc(Cl)cc(NS(=O)(=O)c2cc(Br)ccc2O)c1O [Example J21, 3-((5-Bromo-2-hydroxyphenyl)sulfonamido)-5-chloro-2-hydroxy-N-(oxetan-3-yl)benzamide]	0.58 µM
O=C(N[C@H]1CCOC1)c1cc(Cl)cc(NS(=O)(=O)c2cc(Br)ccc2O)c1O [Example J22, (S)-3-((5-Bromo-2-hydroxyphenyl)sulfonamido)-5-chloro-2-hydroxy-N-(tetrahydrofuran-3-yl)benzamide]	0.47 µM
O=C(NCC1CCOC1)c1cc(Cl)cc(NS(=O)(=O)c2cc(Br)ccc2O)c1O (stereo not drawn) [Example J23, 3-((5-Bromo-2-hydroxyphenyl)sulfonamido)-5-chloro-2-hydroxy-N-((tetrahydrofuran-3-yl)methyl)benzamide]	0.49 µM
COC1CCN(C(=O)c2cc(Cl)cc(NS(=O)(=O)c3cc(Br)ccc3O)c2O)C1 (stereo not drawn) [Example J24, 5-Bromo-N-(5-chloro-2-hydroxy-3-(3-methoxypyrrolidine-1-carbonyl)phenyl)-2-hydroxybenzenesulfonamide]	5.44 µM
O=C(NCC1CCCO1)c1cc(Cl)cc(NS(=O)(=O)c2cc(Br)ccc2O)c1O (stereo not drawn) [Example J25, 3-((5-Bromo-2-hydroxyphenyl)sulfonamido)-5-chloro-2-hydroxy-N-((tetrahydrofuran-2-yl)methyl)benzamide]	0.23 µM
O=C(NC[C@H]1CCCO1)c1cc(Cl)cc(NS(=O)(=O)c2cc(Br)ccc2O)c1O [Example J26, (R)-3-((5-Bromo-2-hydroxyphenyl)sulfonamido)-5-chloro-2-hydroxy-N-((tetrahydrofuran-2-yl)methyl)benzamide]	0.74 µM
O=C(NC[C@@H]1CCCO1)c1cc(Cl)cc(NS(=O)(=O)c2cc(Br)ccc2O)c1O [Example J27, (S)-3-((5-Bromo-2-hydroxyphenyl)sulfonamido)-5-chloro-2-hydroxy-N-((tetrahydrofuran-2-yl)methyl)benzamide]	0.78 µM
COC[C@H]1CCCN1C(=O)c1cc(Cl)cc(NS(=O)(=O)c2cc(Br)ccc2O)c1O [Example J28, (R)-5-Bromo-N-(5-chloro-2-hydroxy-3-(2-(methoxymethyl)pyrrolidine-1-carbonyl)phenyl)-2-hydroxybenzenesulfonamide]	8.29 µM
COC[C@@H]1CCCN1C(=O)c1cc(Cl)cc(NS(=O)(=O)c2cc(Br)ccc2O)c1O [Example J29, (S)-5-Bromo-N-(5-chloro-2-hydroxy-3-(2-(methoxymethyl)pyrrolidine-1-carbonyl)phenyl)-2-hydroxybenzenesulfonamide]	4 µM
O=C(c1cc(Cl)cc(NS(=O)(=O)c2cc(Br)ccc2O)c1O)N1CCOCC1 [Example J30, 5-Bromo-N-(5-chloro-2-hydroxy-3-(morpholine-4-carbonyl)phenyl)-2-hydroxybenzenesulfonamide]	2.36 µM
O=C(NCc1ccccn1)c1cc(Cl)cc(NS(=O)(=O)c2cc(Br)ccc2O)c1O [Example J31, 3-((5-Bromo-2-hydroxyphenyl)sulfonamido)-5-chloro-2-hydroxy-N-(pyridin-2-ylmethyl)benzamide]	0.79 µM
O=C(NCc1ccco1)c1cc(Cl)cc(NS(=O)(=O)c2cc(Br)ccc2O)c1O [Example J34, 3-((5-Bromo-2-hydroxyphenyl)sulfonamido)-5-chloro-N-(furan-2-ylmethyl)-2-hydroxybenzamide]	0.32 µM
O=C(NCc1ccc(=O)[nH]c1)c1cc(Cl)cc(NS(=O)(=O)c2cc(Br)ccc2O)c1O [Example J35, 3-((5-Bromo-2-hydroxyphenyl)sulfonamido)-5-chloro-2-hydroxy-N-((6-oxo-1,6-dihydropyridin-3-yl)methyl)benzamide]	0.23 µM
O=C(NCc1cc[nH]c(=O)c1)c1cc(Cl)cc(NS(=O)(=O)c2cc(Br)ccc2O)c1O [Example J36, 3-((5-Bromo-2-hydroxyphenyl)sulfonamido)-5-chloro-2-hydroxy-N-((2-oxo-1,2-dihydropyridin-4-yl)methyl)benzamide]	0.24 µM
CN(CC1CCCO1)C(=O)c1cc(Cl)cc(NS(=O)(=O)c2cc(Br)ccc2O)c1O (stereo not drawn) [Example J37, 3-((5-Bromo-2-hydroxyphenyl)sulfonamido)-5-chloro-2-hydroxy-N-methyl-N-((tetrahydrofuran-2-yl)methyl)benzamide]	3.78 µM
